# Laboratory results published in US20060205949A1, “Crystalline forms of a biphenyl compound” (THERAVANCE, INC., priority 2005, published 2006).
# Tests used:
# [1] = biological target: T1, M3 muscarinic receptor subtype (hM3) (Homo sapiens, UniProt P20309); experiment: Radioligand binding assay ([3H]-NMS displacement); conditions: CHO cell membranes, tested in this or a similar assay
# T1 construct: expressed in transfected cells
# Procedure: CHO cell lines stably expressing cloned human hM1, hM2, hM3 and hM4 muscarinic receptor subtypes, respectively, were grown to near confluency in medium consisting of HAM's F-12 supplemented with 10% FBS and 250 μg/mL Geneticin. The cells were grown in a 5% CO2, 37° C. incubator and lifted with 2 mM EDTA in DPBS. Cells were collected by 5 minute centrifugation at 650×g, and cell pellets were either stored frozen at −80° C. or membranes were prepared immediately. For membrane preparation, cell pellets were resuspended in lysis buffer and homogenized with a Polytron PT-2100 tissue disrupter (Kinematica AG; 20 seconds×2 bursts). Crude membranes were centrifuged at 40,000×g for 15 minutes at 4° C. […] The protein concentration of the membrane suspension was determined by the method described in Lowry, O. et al., Journal of Biochemistry 193:265 (1951). […]
# Radioligand binding assays were performed in 96-well microtiter plates in a total assay volume of 100 μL. […] Filter plates were rinsed three times with wash buffer (10 mM HEPES) to remove unbound radioactivity. […] The plates were then counted in a PerkinElmer Topcount liquid scintillation counter (PerkinElmer Inc., Wellesley, Mass.). Binding data were analyzed by nonlinear regression analysis with the GraphPad Prism Software package (GraphPad Software, Inc., San Diego, Calif.) using the one-site competition model. […]
# [2] = system: ACh-induced bronchoconstriction; experiment: Duration of bronchoprotection in guinea pig model of acetylcholine-induced bronchoconstriction; format: in vivo; conditions: inhalation, 1.5 hours post-dose, expected
# Procedure: Groups of six male guinea pigs (Duncan-Hartley (HsdPoc:DH) Harlan, Madison, Wis.) weighing between 250 and 350 g are individually identified by cage cards. Throughout the study animals are allowed access to food and water ad libitum.
# Test compounds are administered via inhalation over 10 minutes in a whole-body exposure dosing chamber (R&S Molds, San Carlos, Calif.). The dosing chambers are arranged so that an aerosol was simultaneously delivered to 6 individual chambers from a central manifold. Guinea pigs are exposed to an aerosol of a test compound or vehicle (WFI). […] This is measured gravimetrically by comparing pre-and post-nebulization weights of the filled nebulizer.
# The bronchoprotective effects of test compounds administered via inhalation are evaluated using whole body plethysmography at 1.5, 24, 48 and 72 hours post-dose.
# Forty-five minutes prior to the start of the pulmonary evaluation, each guinea pig is anesthetized with an intramuscular injection of ketamine (43.75 mg/kg), xylazine (3.50 mg/kg) and acepromazine (1.05 mg/kg). […] The depth of anesthesia is monitored and adjusted if the animal responds to pinching of its paw or if the respiration rate is greater than 100 breaths/minute. […]
# Starting this program initiates the experimental protocol and data collection. […] By integrating this signal over time, a measurement of […] is calculated for each breath. […]
# T1 sequence (P20309 whole entry): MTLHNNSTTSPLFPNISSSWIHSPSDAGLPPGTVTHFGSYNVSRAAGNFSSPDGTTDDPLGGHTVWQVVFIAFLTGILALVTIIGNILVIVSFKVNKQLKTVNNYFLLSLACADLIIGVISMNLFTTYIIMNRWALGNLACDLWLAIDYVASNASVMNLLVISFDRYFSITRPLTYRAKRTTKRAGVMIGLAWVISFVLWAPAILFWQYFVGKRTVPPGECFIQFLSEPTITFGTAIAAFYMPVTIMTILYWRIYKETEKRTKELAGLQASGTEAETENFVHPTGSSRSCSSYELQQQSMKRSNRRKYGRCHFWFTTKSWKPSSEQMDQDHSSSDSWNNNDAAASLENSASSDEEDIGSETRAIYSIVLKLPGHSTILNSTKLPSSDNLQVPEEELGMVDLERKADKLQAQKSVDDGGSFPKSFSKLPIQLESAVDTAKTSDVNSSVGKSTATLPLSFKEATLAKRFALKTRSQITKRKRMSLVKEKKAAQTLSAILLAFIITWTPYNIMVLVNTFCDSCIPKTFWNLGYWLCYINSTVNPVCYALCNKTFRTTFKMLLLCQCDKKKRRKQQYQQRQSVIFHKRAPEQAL
structure (smiles),measurement,setting,value
"O=C(CCN1CCC(OC(=O)Nc2ccccc2-c2ccccc2)CC1)NCCCCCNCc1ccc(O)cc1 [compound of formula I, biphenyl-2-ylcarbamic acid 1-{2-[5-(4-hydroxybenzylamino)pentylcarbamoyl]ethyl}piperidin-4-yl ester]",Ki,[1],< 5 nM
same,PD2(50) for ACh-induced bronchoconstriction,[2],less than 200 μg/mL
